According to US6689790B2, “Substituted triazolopyridine compounds” (Hoffmann-La Roche Inc., priority 2001, dated 2004):

Target: T1, human adenosine A2A receptor (Homo sapiens, UniProt P29274)
T1 construct: expressed in transfected cells; host or cells: CHO cells, semliki forest virus expression system; washed membranes
Test: [3H]-SCH-58261 binding assay, human adenosine A2A receptor (CHO cell membranes, SPA)
Conditions: [3H]-SCH-58261 displacement; list of examples 10-108; read-out: hA2a Ki
Protocol: Human Adenosine A2A Receptor
The human adenosine A2A receptor was recombinantly expressed in chinese hamster ovary (CHO) cells using the semliki forest virus expression system. Cells were harvested, washed twice by centrifugation, homogenized and again washed by centrifugation. The final washed membrane pellet was suspended in a Tris (50 mM) buffer containing 120 mM NaCl, 5 mM KCl, 2 mM CaCl2 and 10 mM MgCl2 (pH 7.4) (buffer A). […] Compounds were tested at 10 concentrations from 10 μM-0.3 nM. All assays were conducted in duplicate and repeated at least two times. Assay plates were incubated for 1 hour at room temperature before centrifugation and then bound ligand determined using a Packard Topcount scintillation counter. IC50 values were calculated using a non-linear curve fitting program and Ki values calculated using the Cheng-Prussoff equation.

T1 sequence (P29274 whole entry): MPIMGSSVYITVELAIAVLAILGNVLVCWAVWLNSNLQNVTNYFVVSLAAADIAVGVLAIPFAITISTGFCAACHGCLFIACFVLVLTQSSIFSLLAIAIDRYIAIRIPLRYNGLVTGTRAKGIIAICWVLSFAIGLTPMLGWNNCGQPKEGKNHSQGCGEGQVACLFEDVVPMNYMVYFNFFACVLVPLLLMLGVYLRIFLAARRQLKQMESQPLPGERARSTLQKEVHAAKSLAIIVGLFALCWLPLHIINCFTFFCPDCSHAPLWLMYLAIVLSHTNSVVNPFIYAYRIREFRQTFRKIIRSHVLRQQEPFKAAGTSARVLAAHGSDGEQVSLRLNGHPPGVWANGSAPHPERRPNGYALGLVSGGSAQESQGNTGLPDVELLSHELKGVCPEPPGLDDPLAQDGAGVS

**Q.** How did the Ki turn out when `CCCN(C)C(=O)c1cc(N)c2nc(-c3ccco3)nn2c1` [Example 47, 8-Amino-2-furan-2-yl-[1,2,4]triazolo[1,5-a]pyridine-6-carboxylic acid methyl-propyl-amide] was run?
**A.** 0.241 µM

**Q.** With `CN(CCc1ccccc1)C(=O)c1cc(N)c2nc(-c3ccccc3)nn2c1` [Example 81, 8-Amino-2-phenyl-[1,2,4]triazolo[1,5-a]pyridine-6-carboxylic acid methyl-phenethyl-amide] as the compound, how does the Ki read?
**A.** 0.524 µM

**Q.** Which Ki does the source give for `CC1CCCN1C(=O)c1cc(N)c2nc(-c3cccs3)nn2c1` (stereo not shown) [Example 53, (8-Amino-2-thiophen-2-yl-[1,2,4]triazolo[1,5-a]pyridin-6-yl)-(2-methyl-pyrrolidin-1-yl)-methanone] here?
**A.** 0.233 µM

**Q.** How did the Ki turn out when `Nc1cc(C(=O)N2CCCCC2)cn2nc(-c3ccccc3)nc12` [Example 69, (8-Amino-2-phenyl-[1,2,4]triazolo[1,5-a]pyridin-6-yl)-piperidin-1-yl-methanone] was run?
**A.** 0.554 µM

**Q.** `CCCN(C)C(=O)c1cc(N)c2nc(-c3cccs3)nn2c1` [Example 63, 8-Amino-2-thiophen-2-yl-[1,2,4]triazolo[1,5-a]pyridine-6-carboxylic acid methyl-propyl-amide] was tested. Which Ki did it give?
**A.** 0.44 µM

**Q.** With `Cc1ccc(-c2nc3c(N)cc(C(=O)N(C)CCc4ccccc4)cn3n2)o1` [Example 91, 8-Amino-2-(5-methyl-furan-2-yl)-[1,2,4]triazolo[1,5-a]pyridine-6-carboxylic acid methyl-phenethyl-amide] as the compound, how does the Ki read?
**A.** 0.112 µM

**Q.** With `CCN(CC)C(=O)C1CCCN(C(=O)c2cc(N)c3nc(-c4ccccn4)nn3c2)C1` (stereo not shown) [Example 29, 1-(8-Amino-2-pyridin-2-yl-[1,2,4]triazolo[1,5-a]pyridine-6-carbonyl)-piperidine-3-carboxylic acid diethylamide] as the compound, how does the Ki read?
**A.** 0.594 µM

**Q.** `CN(CCc1ccccc1)C(=O)c1cc(N)c2nc(-c3nccs3)nn2c1` [Example 108, 8-Amino-2-thiazol-2-yl-[1,2,4]triazolo[1,5-a]pyridine-6-carboxylic acid methyl-phenethyl-amide] was tested. Which Ki did it give?
**A.** 0.988 µM

**Q.** `CC1CCCCN1C(=O)c1cc(N)c2nc(-c3ccccc3)nn2c1` (stereo not shown) [Example 72, (8-Amino-2-phenyl-[1,2,4]triazolo[1,5-a]pyridin-6-yl)-(2-methyl-piperidin-1-yl)-methanone] was tested. Which Ki did it give?
**A.** 0.361 µM

**Q.** How did the Ki turn out when `COC[C@@H]1CCCN1C(=O)c1cc(N)c2nc(-c3cccs3)nn2c1` [Example 58, (8-Amino-2-thiophen-2-yl-[1,2,4]triazolo[1,5-a]pyridin-6-yl)-(2-S-methoxymethyl-pyrrolidin-1-yl)-methanone] was run?
**A.** 0.892 µM

**Q.** For `CC1CCCN(C(=O)c2cc(N)c3nc(-c4ccccn4)nn3c2)C1` (stereo not shown) [Example 30, (8-Amino-2-pyridin-2-yl-[1,2,4]triazolo[1,5-a]pyridin-6-yl)-(3-methyl-piperidin-1-yl)-methanone], which Ki is on record?
**A.** 0.578 µM

**Q.** `CCCN(C)C(=O)c1cc(N)c2nc(-c3ccccn3)nn2c1` [Example 31, 8-Amino-2-pyridin-2-yl-[1,2,4]triazolo[1,5-a]pyridine-6-carboxylic acid methyl-propyl-amide] was tested. Which Ki did it give?
**A.** 0.796 µM

**Q.** Which Ki does the source give for `CN(C)C(=O)[C@@H]1CCCN1C(=O)c1cc(N)c2nc(-c3ccccc3)nn2c1` [Example 76, 1-(8-Amino-2-phenyl-[1,2,4]triazolo[1,5-a]pyridine-6-carbonyl)-pyrrolidine-2-carboxylic acid dimethylamide] here?
**A.** 0.42 µM

**Q.** With `CC1CCCN1C(=O)c1cc(N)c2nc(-c3ccccc3)nn2c1` (stereo not shown) [Example 70, (8-Amino-2-phenyl-[1,2,4]triazolo[1,5-a]pyridin-6-yl)-(2-methyl-pyrrolidin-1-yl)-methanone] as the compound, how does the Ki read?
**A.** 0.145 µM

**Q.** For `CC1CCCN1C(=O)c1cc(N)c2nc(-c3nccs3)nn2c1` (stereo not shown) [Example 105, (8-Amino-2-thiazol-2-yl-[1,2,4]triazolo[1,5-a]pyridin-6-yl)-(2-methyl-pyrrolidin-1-yl)-methanone], which Ki is on record?
**A.** 0.654 µM

**Q.** How did the Ki turn out when `Cc1ccc(-c2nc3c(N)cc(C(=O)N4CCSCC4)cn3n2)s1` [Example 102, [8-Amino-2-(5-methyl-thiophen-2-yl)-[1,2,4]triazolo[1,5-a]pyridin-6-yl]-thiomorpholin-4-yl-methanone] was run?
**A.** 0.478 µM

**Q.** With `CCCCN(C)C(=O)c1cc(N)c2nc(-c3ccccc3)nn2c1` [Example 71, 8-Amino-2-phenyl-[1,2,4]triazolo[1,5-a]pyridine-6-carboxylic acid methyl-butyl-amide] as the compound, how does the Ki read?
**A.** 0.484 µM

**Q.** How did the Ki turn out when `CN(C)C(=O)CN(C)C(=O)c1cc(N)c2nc(-c3ccccc3)nn2c1` [Example 77, 8-Amino-2-phenyl-[1,2,4]triazolo[1,5-a]pyridine-6-carboxylic acid dimethylcarbamoyl-methyl-methyl-amide] was run?
**A.** 0.674 µM

**Q.** How did the Ki turn out when `CN(C)C(=O)CN(C)C(=O)c1cc(N)c2nc(-c3cccs3)nn2c1` [Example 60, 8-Amino-2-thiophen-2-yl-[1,2,4]triazolo[1,5-a]pyridine-6-carboxylic acid dimethylcarbamoyl-methyl-methyl-amide] was run?
**A.** 0.548 µM

**Q.** For `Cc1ccc(-c2nc3c(N)cc(C(=O)N4CCCC(C)C4)cn3n2)s1` (stereo not shown) [Example 100, [8-Amino-2-(5-methyl-thiophen-2-yl)-[1,2,4]triazolo[1,5-a]pyridin-6-yl]-(3-methyl-piperidin-1-yl)-methanone], which Ki is on record?
**A.** 0.178 µM

**Q.** How did the Ki turn out when `Nc1cc(C(=O)N2CCCC2)cn2nc(-c3ccccc3)nc12` [Example 68, (8-Amino-2-phenyl-[1,2,4]triazolo[1,5-a]pyridin-6-yl)-pyrrolidin-1-yl-methanone] was run?
**A.** 0.246 µM

**Q.** Which Ki does the source give for `Nc1cc(C(=O)N2CCCC2)cn2nc(-c3nccs3)nc12` [Example 104, (8-Amino-2-thiazol-2-yl-[1,2,4]triazolo[1,5-a]pyridin-6-yl)-pyrrolidin-1-yl-methanone] here?
**A.** 0.564 µM

**Q.** For `Cc1ccc(-c2nc3c(N)cc(C(=O)N4CC(C)OC(C)C4)cn3n2)o1` (stereo not shown) [Example 92, [8-Amino-2-(5-methyl-furan-2-yl)-[1,2,4]triazolo[1,5-a]pyridin-6-yl]-(2,6-dimethyl-morpholin-4-yl)-methanone], which Ki is on record?
**A.** 0.249 µM

**Q.** For `CC1CCCN(C(=O)c2cc(N)c3nc(-c4cccs4)nn3c2)C1` (stereo not shown) [Example 62, (8-Amino-2-thiophen-2-yl-[1,2,4]triazolo[1,5-a]pyridin-6-yl)-(3-methyl-piperidin-1-yl)-methanone], which Ki is on record?
**A.** 0.716 µM

**Q.** Which Ki does the source give for `NC(=O)[C@H]1CCCN1C(=O)c1cc(N)c2nc(-c3cccs3)nn2c1` [Example 59, 1-(8-Amino-2-thiophen-2-yl-[1,2,4]triazolo[1,5-a]pyridine-6-carbonyl)-pyrrolidine-2-R-carboxylic acid amide] here?
**A.** 0.215 µM

**Q.** `COC[C@@H]1CCCN1C(=O)c1cc(N)c2nc(-c3ccc(C)o3)nn2c1` (stereo in doubt) [Example 86, [8-Amino-2-(5-methyl-furan-2-yl)-[1,2,4]triazolo[1,5-a]pyridin-6-yl]-(2-methoxymethyl-pyrrolidin-1-yl)-methanone] was tested. Which Ki did it give?
**A.** 0.23 µM

**Q.** For `CN(CCc1ccccc1)C(=O)c1cc(N)c2nc(-c3ccccn3)nn2c1` [Example 32, 8-Amino-2-pyridin-2-yl-[1,2,4]triazolo[1,5-a]pyridine-6-carboxylic acid methyl-phenethyl-amide], which Ki is on record?
**A.** 0.387 µM

**Q.** For `COCC1CCCN1C(=O)c1cc(N)c2nc(-c3ccccc3)nn2c1` (stereo in doubt) [Example 75, (8-Amino-2-phenyl-[1,2,4]triazolo[1,5-a]pyridin-6-yl)-((S)-2-methoxymethyl-pyrrolidin-1-yl)-methanone], which Ki is on record?
**A.** 0.413 µM
